Results on 13 molecules are retold here after US11147272B2, “Pyridone compounds and agricultural and horticultural fungicides comprising the same as active ingredients” (MITSUI CHEMICALS AGRO, INC., priority 2017, dated 2021).

Assay [1] has as its system Colletotrichum orbiculare. Description: Test Example H: Anthracnose on cucumber. The following applies: for Test H control value class: Anthracnose on cucumber (Sagami Hanjiro), 2.5 ml/pot, assessed 6 to 10 days after inoculation; for Test H control value: 6 to 10 days after inoculation; for pest or weed control at 250 ppm: Colletotrichum orbiculare, in Cucumis sativus, topical, read-out: Test H control value class.

Assay [2] deals with Blumeria graminis f. sp. hordei. Description: Test Example D: Powdery mildew on barley. The following applies: for Test D control value class: class of control value; for pest or weed control at 250 µg/mL: Blumeria graminis, in Hordeum vulgare, topical, read-out: Test D control value class.
A further assay relates to Puccinia recondita. Description: Test Example E: Brown rust on wheat. Particulars: for Test E control value class / pest or weed control at 250 µg/mL: class of control value; for pest or weed control at 250 µg/mL: Puccinia recondita, topical, read-out: Test E control value class. The class given is in vivo.
In a further assay the test system is Plasmopara viticola. Description: Test Example G: Downy mildew on vine. The following applies: for Test G control value class: Downy mildew on vine (Neomuscat), 2.5 ml/pot, assessed 7 to 10 days after inoculation; for Test G control value: 7 to 10 days after inoculation; for pest or weed control at 250 ppm: Plasmopara viticola, topical, read-out: Test G control value class.

A further assay relates to Botrytis cinerea. Briefly: Test Example B: Gray mold on tomato. Particulars: for Test B control value class: class of control value; for pest or weed control at 250 µg/mL: Botrytis cinerea, in Solanum lycopersicum, topical, read-out: Test B control value class.
A further assay has as its system Phytophthora infestans. Description: whole plant or invertebrate. The following applies: for Test F control value class: class of control value; for pest or weed control at 250 µg/mL: Phytophthora infestans, in Solanum lycopersicum, topical, read-out: Test F control value class. The format is in vivo.
Another assay deals with Magnaporthe grisea. Description: whole plant or invertebrate. The class given is in vivo. The following applies: for Test A control value class: class of control value; for pest or weed control at 250 µg/mL: Pyricularia oryzae, in Oryza sativa, read-out: Test A control value class.
Another assay relates to Alternaia brassicicola. Briefly: Test Example C: Alternaria sooty spot on cabbage. The format is in vivo. The following applies: for Test C control value class / pest or weed control at 250 µg/mL: class of control value; for pest or weed control at 250 µg/mL: Brassica oleracea, topical, read-out: Test C control value class. An excerpt: Seeds of a test plant (cabbage variety: Shikidori) were planted and cultivated until the cotyledons extended.
<Control Value> Control value=100{1−(n/3)}

Setting [3] is: Alternaria sooty spot on cabbage.
The mark [4] stands for this setting: 250 ppm drug solution sprayed on test plant.

Turning to `CCn1c(-c2c(F)cc(OC)cc2F)c(C(C)C(C)C)cc(Cl)c1=O` (racemic) [compound 171], in assay [1] (250 ppm spray), the “Test H control value class” value is on record as “H (more than 50% control value)”. Besides, the “Test D control value class” value in assay [2] (Powdery mildew on barley) is “H (more than 50% control value)”. Further, the “Test E control value class” value in the assay with Puccinia recondita (Brown rust on wheat) is “H (more than 50% control value)”. The “Test G control value class” value with Plasmopara viticola (250 ppm spray) was “H (more than 50% control value)”. In addition, in the assay with Botrytis cinerea (Gray mold on tomato), the “Test B control value class” value was “H (more than 50% control value)”. In addition, the “Test F control value class” value in the assay with Phytophthora infestans (Late blight on tomato) was “L (50% or less control value)”. Further, the “Test A control value class” value in the assay with Magnaporthe grisea (Blast on rice) was “H (more than 50% control value)”. In addition, the “Test C control value class” value in the assay on Alternaia brassicicola (setting [3]) is recorded as “H (more than 50% control value)”.

Turning to `CCn1c(-c2c(F)cc(F)cc2F)c(C(Cl)C(C)(C)C)cc(Cl)c1=O` (racemic) [compound 172], the “Test H control value class” value in assay [1] (250 ppm spray) is “H (more than 50% control value)”. In addition, the “Test D control value class” value in assay [2] (Powdery mildew on barley) is “H (more than 50% control value)”. Moreover, in the assay on Puccinia recondita (Brown rust on wheat), the “Test E control value class” value is “H (more than 50% control value)”. The “Test G control value class” value in the assay on Plasmopara viticola (250 ppm spray) is given as “H (more than 50% control value)”. The “Test B control value class” value with Botrytis cinerea (Gray mold on tomato) is recorded as “H (more than 50% control value)”. For the same molecule, the “Test F control value class” value in the assay on Phytophthora infestans (Late blight on tomato) is recorded as “H (more than 50% control value)”. Also, the “Test A control value class” value in the assay on Magnaporthe grisea (Blast on rice) is given as “H (more than 50% control value)”. In addition, the “Test C control value class” value in the assay on Alternaia brassicicola (setting [3]) was “H (more than 50% control value)”.

In the case of `CCn1c(-c2c(F)cc(F)cc2F)c(C(C)(O)C(C)(C)C)cc(Cl)c1=O` (racemic) [compound 174], the “Test H control value class” value in assay [1] (250 ppm spray) is “L (50% or less control value)”. Also, the “Test D control value class” value in assay [2] (Powdery mildew on barley) was “H (more than 50% control value)”. Also, the “Test E control value class” value in the assay with Puccinia recondita (Brown rust on wheat) was “H (more than 50% control value)”. Further, in the assay with Plasmopara viticola (250 ppm spray), the “Test G control value class” value was “L (50% or less control value)”. For the same molecule, the “Test B control value class” value with Botrytis cinerea (Gray mold on tomato) was “H (more than 50% control value)”. For the same molecule, the “Test F control value class” value with Phytophthora infestans (Late blight on tomato) was “L (50% or less control value)”. The “Test A control value class” value in the assay with Magnaporthe grisea (Blast on rice) is reported as “H (more than 50% control value)”. The “Test C control value class” value in the assay with Alternaia brassicicola (setting [3]) was “H (more than 50% control value)”.

As for `CCn1c(-c2c(F)cc(OC)cc2F)c(C(C)(O)C(C)(C)C)cc(Cl)c1=O` (racemic) [compound 180], in assay [1] (250 ppm spray), the “Test H control value class” value is “L (50% or less control value)”. Besides, the “Test D control value class” value in assay [2] (Powdery mildew on barley) is recorded as “L (50% or less control value)”. Also, the “Test E control value class” value with Puccinia recondita (Brown rust on wheat) is given as “L (50% or less control value)”. Besides, the “Test G control value class” value with Plasmopara viticola (250 ppm spray) is “L (50% or less control value)”. For the same molecule, the “Test B control value class” value in the assay on Botrytis cinerea (Gray mold on tomato) is “H (more than 50% control value)”. Further, in the assay on Phytophthora infestans (Late blight on tomato), the “Test F control value class” value is on record as “L (50% or less control value)”. For the same molecule, the “Test A control value class” value with Magnaporthe grisea (Blast on rice) is “H (more than 50% control value)”. For the same molecule, the “Test C control value class” value in the assay on Alternaia brassicicola (setting [3]) is listed as “H (more than 50% control value)”.

Take `CCn1c(-c2c(F)cccc2F)c(C(C)(F)C(C)C)cc(Cl)c1=O` (racemic) [compound 184]: the “Test H control value class” value in assay [1] (250 ppm spray) is given as “H (more than 50% control value)”. For the same molecule, the “Test D control value class” value in assay [2] (Powdery mildew on barley) is “H (more than 50% control value)”. In the assay with Puccinia recondita (Brown rust on wheat), the “Test E control value class” value is listed as “H (more than 50% control value)”. Moreover, the “Test G control value class” value with Plasmopara viticola (250 ppm spray) is listed as “H (more than 50% control value)”. Besides, in the assay with Botrytis cinerea (Gray mold on tomato), the “Test B control value class” value is “H (more than 50% control value)”. Moreover, the “Test F control value class” value in the assay with Phytophthora infestans (Late blight on tomato) is “L (50% or less control value)”. In the assay with Magnaporthe grisea (Blast on rice), the “Test A control value class” value is on record as “H (more than 50% control value)”. Also, the “Test C control value class” value in the assay on Alternaia brassicicola (setting [3]) is “H (more than 50% control value)”.

Consider `CCOC(C)(c1cc(Cl)c(=O)n(CC)c1-c1c(F)cccc1F)C(C)C` (racemic) [compound 188], for which the “Test H control value” in assay [1] (Anthracnose on cucumber, 250 ppm spray) is “H (more than 50% control value)”. The “Test D control value” in assay [2] (Powdery mildew on barley, control value class) is listed as “H (more than 50% control value)”. Besides, the “Test E control value” in the assay with Puccinia recondita (Brown rust on wheat, control value class) is given as “H (more than 50% control value)”. Further, the “Test G control value” in the assay on Plasmopara viticola (Downy mildew on vine, 250 ppm spray) is listed as “H (more than 50% control value)”. Also, the “Test B control value” in the assay on Botrytis cinerea (Gray mold on tomato, control value class) is given as “H (more than 50% control value)”. The “Test F control value” in the assay on Phytophthora infestans (Late blight on tomato, control value class) is “H (more than 50% control value)”. The “Test A control value” with Magnaporthe grisea (Blast on rice, control value class) was “H (more than 50% control value)”. For the same molecule, the “Test C control value” in the assay on Alternaia brassicicola (Alternaria sooty spot on cabbage, control value class) is “H (more than 50% control value)”.

Turning to `CCC(O)c1ccc(=O)n(CC)c1-c1c(F)cc(F)cc1F` (racemic) [compound 469], in assay [1] (250 ppm drug solution sprayed (2.5 ml/pot), cucumber Sagami Hanjiro), the “Test H control value” is reported as “H (more than 50% control value)”. In assay [2] (setting [4]), the “Test D control value” is reported as “L (50% or less control value)”. In addition, the “Test E control value” in the assay on Puccinia recondita (setting [4]) was “L (50% or less control value)”. In addition, the “Test G control value” with Plasmopara viticola (250 ppm drug solution sprayed (2.5 ml/pot), grape Neomuscat) is on record as “L (50% or less control value)”. Moreover, in the assay with Botrytis cinerea (setting [4]), the “Test B control value” was “H (more than 50% control value)”. For the same molecule, the “Test F control value” with Phytophthora infestans (setting [4]) was “L (50% or less control value)”. Further, in the assay with Magnaporthe grisea (setting [4]), the “Test A control value” is “L (50% or less control value)”. Further, the “Test C control value” with Alternaia brassicicola (setting [4]) was “H (more than 50% control value)”.

For `CCn1c(-c2c(F)cccc2F)c(C)ccc1=O` [Compound No. 1, 6-(2,6-difluorophenyl)-1-ethyl-5-methylpyridin-2(1H)-one], the pest or weed control at 250 ppm (in assay [1]; in the assay with Plasmopara viticola) was less than 50% in each case. Besides, the pest or weed control at 250 µg/mL is less than 50% in assay [2]; less than 50% in the assay on Puccinia recondita (Brown rust on wheat); less than 50% with Botrytis cinerea; less than 50% in the assay with Phytophthora infestans; more than 50% in the assay on Magnaporthe grisea; less than 50% with Alternaia brassicicola (setting [3]).

With `CCn1c(-c2c(F)cccc2F)c(C)cc(Cl)c1=O` [Compound No. 2, 3-chloro-6-(2,6-difluorophenyl)-1-ethyl-5-methylpyridin-2(1H)-one], the pest or weed control at 250 ppm is more than 50% in assay [1] and less than 50% with Plasmopara viticola. Further, the pest or weed control at 250 µg/mL in assay [2] was more than 50%; with Puccinia recondita (Brown rust on wheat) it was less than 50%; with Botrytis cinerea, less than 50%; in the assay with Phytophthora infestans, more than 50%; in the assay with Magnaporthe grisea, more than 50%; in the assay with Alternaia brassicicola (setting [3]), less than 50%.

`CCn1c(-c2c(F)cc(F)cc2F)c(C(C)C)ccc1=O` [Compound No. 7, 1-ethyl-5-isopropyl-6-(2,4,6-trifluorophenyl)pyridin-2(1H)-one]: the pest or weed control at 250 ppm (in assay [1]; in the assay on Plasmopara viticola) was more than 50% in each case. Further, the pest or weed control at 250 µg/mL in assay [2] is more than 50%; with Puccinia recondita (Brown rust on wheat), more than 50%; in the assay with Botrytis cinerea, more than 50%; in the assay with Phytophthora infestans it was less than 50%; in the assay on Magnaporthe grisea it was more than 50%; in the assay with Alternaia brassicicola (setting [3]) it was more than 50%.

Turning to `CCn1c(-c2c(F)cc(F)cc2F)c(C(C)C)cc(Cl)c1=O` [Compound No. 8, 3-chloro-1-ethyl-5-isopropyl-6-(2,4,6-trifluorophenyl)pyridin-2(1H)-one], the pest or weed control at 250 ppm in assay [1] is more than 50%; with Plasmopara viticola it was less than 50%. The pest or weed control at 250 µg/mL in assay [2] is more than 50%; with Puccinia recondita (Brown rust on wheat) it was more than 50%; with Botrytis cinerea, more than 50%; with Phytophthora infestans, less than 50%; in the assay with Magnaporthe grisea, more than 50%; with Alternaia brassicicola (setting [3]) it was more than 50%.

As for `CCn1c(-c2c(F)cc(OC)cc2F)c(C(C)C)ccc1=O` [Compound No. 10, 6-(2,6-Difluoro-4-methoxyphenyl)-1-ethyl-5-isopropylpyridin-2(1H)-one], the pest or weed control at 250 ppm in assay [1] is more than 50%; in the assay with Plasmopara viticola, less than 50%. Also, the pest or weed control at 250 µg/mL is more than 50% in assay [2]; more than 50% in the assay on Puccinia recondita (Brown rust on wheat); more than 50% in the assay with Botrytis cinerea; less than 50% in the assay with Phytophthora infestans; more than 50% with Magnaporthe grisea; more than 50% with Alternaia brassicicola (setting [3]).

As for `CCn1c(-c2c(F)cc(OC)cc2F)c(C(C)C)cc(Cl)c1=O` [Compound No. 11, 3-Chloro-6-(2,6-difluoro-4-methoxyphenyl)-1-ethyl-5-isopropylpyridin-2(1H)-one], the pest or weed control at 250 ppm in assay [1] was more than 50%; with Plasmopara viticola, less than 50%. For the same molecule, the pest or weed control at 250 µg/mL in assay [2] is more than 50%; in the assay with Puccinia recondita (Brown rust on wheat), more than 50%; in the assay with Botrytis cinerea, more than 50%; in the assay with Phytophthora infestans, less than 50%; in the assay on Magnaporthe grisea, more than 50%; with Alternaia brassicicola (setting [3]) it was more than 50%.
